From ChEMBL document CHEMBL2021840 (Eur J Med Chem, 2012)

Assays:
[1] = tested on: MCF7; test: Antiproliferative activity against human MCF7 cells; assay type: functional, cell-based
[2] = target: T1, Estrogen receptor beta (Homo sapiens, UniProt Q92731); test: Relative binding affinity to human ERbeta
[3] = Selectivity ratio of IC50 for ERbeta to IC50 for ERalpha
[4] = tested on: MCF7; test: Antiproliferative activity against human MCF7 cells after 7 days; assay type: functional, cell-based; settings: MCF7, 168 h
[5] = target: T2, Estrogen receptor (Homo sapiens, UniProt P03372); test: Displacement of [3H]-17beta-estradiol from ERalpha
T2 sequence (P03372 whole entry): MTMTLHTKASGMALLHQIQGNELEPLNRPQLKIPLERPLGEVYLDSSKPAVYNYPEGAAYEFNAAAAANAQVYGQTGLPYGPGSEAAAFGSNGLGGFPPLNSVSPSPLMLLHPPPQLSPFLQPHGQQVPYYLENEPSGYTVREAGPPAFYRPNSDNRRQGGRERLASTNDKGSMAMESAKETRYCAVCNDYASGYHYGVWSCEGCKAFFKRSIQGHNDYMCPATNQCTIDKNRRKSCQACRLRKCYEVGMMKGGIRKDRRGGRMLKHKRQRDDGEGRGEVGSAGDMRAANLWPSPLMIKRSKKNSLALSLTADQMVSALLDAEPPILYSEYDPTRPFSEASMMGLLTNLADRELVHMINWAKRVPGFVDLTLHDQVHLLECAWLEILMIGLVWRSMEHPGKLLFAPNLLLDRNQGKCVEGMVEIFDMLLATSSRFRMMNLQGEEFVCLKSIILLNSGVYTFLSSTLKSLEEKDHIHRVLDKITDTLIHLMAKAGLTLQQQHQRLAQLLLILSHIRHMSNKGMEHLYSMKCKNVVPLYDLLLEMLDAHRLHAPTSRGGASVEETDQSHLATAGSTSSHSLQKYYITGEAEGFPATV

[6] = target: T1, Estrogen receptor beta; test: Displacement of [3H]-17beta-estradiol from ERbeta
[7] = Homo sapiens, MCF7, read-out: IC50

T1 sequence (Q92731 whole entry): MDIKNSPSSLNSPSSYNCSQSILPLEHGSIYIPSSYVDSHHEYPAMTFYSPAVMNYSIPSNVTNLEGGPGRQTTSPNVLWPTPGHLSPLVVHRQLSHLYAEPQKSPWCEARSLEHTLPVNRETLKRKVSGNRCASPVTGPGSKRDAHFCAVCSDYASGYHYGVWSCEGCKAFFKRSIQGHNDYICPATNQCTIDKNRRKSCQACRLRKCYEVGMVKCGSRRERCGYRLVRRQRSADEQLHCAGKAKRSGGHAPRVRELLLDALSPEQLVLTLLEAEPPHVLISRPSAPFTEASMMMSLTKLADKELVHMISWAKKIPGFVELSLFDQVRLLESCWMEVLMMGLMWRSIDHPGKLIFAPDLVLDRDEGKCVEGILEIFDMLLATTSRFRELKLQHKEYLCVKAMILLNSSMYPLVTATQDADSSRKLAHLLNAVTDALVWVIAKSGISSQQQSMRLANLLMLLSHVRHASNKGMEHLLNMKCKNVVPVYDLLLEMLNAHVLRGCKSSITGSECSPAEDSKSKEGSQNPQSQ

Compound | IC50 [1, 7] | other results
COc1ccc(-c2sc3cc(O)ccc3c2C(=O)c2ccc(OCCN3CCCCC3)cc2)cc1 | 1000 nM | 
O=C(c1ccc(OCCN2CCCCC2)cc1)c1c(-c2ccc(O)cc2)sc2ccccc12 | 35 nM | 
Cc1sc2cc(O)ccc2c1Cc1ccc(OCCN2CCCCC2)cc1 | 600 nM | 
O=C(c1ccc(OCCN2CCCCC2)cc1)c1c(-c2ccc(O)cc2CCCF)sc2cc(O)ccc12 |  | relative binding affinity (RBA) [2]: 24
Cc1cccc(C(=O)N2CCN(c3ccc(C(=O)c4c(-c5ccc(O)cc5)sc5cc(O)ccc45)cc3)CC2)c1 |  | Ratio IC50 [3]: 46.2
C[C@]12CC[C@@H]3c4ccc(O)cc4CC[C@H]3[C@@H]1CC[C@@H]2O [ESTRADIOL] |  | relative binding affinity (RBA) [2]: 3.5; IC50 ([1]; mcf7): Not Active
CCc1sc2cc(O)ccc2c1Cc1ccc(OCCN2CCCCC2)cc1 | 400 nM | 
Oc1ccc2c(Cc3ccc(OCCN4CCCCC4)cc3)c(C3CCCC3)sc2c1 | 10 nM | 
Cc1cc(-c2sc3cc(O)ccc3c2C(=O)c2ccc(OCCN3CCCCC3)cc2)ccc1O | 1 nM | 
COc1ccc2c(C(=O)c3ccc(OCCN4CCCCC4)cc3)c([C@H]3CC[C@@H](O)CC3)sc2c1 | 100 nM | 
O=C(c1ccc(OCCN2CCCCC2)cc1)c1c(-c2ccc(O)cc2)sc2cc(O)c(O)cc12 | 400 nM | 
COc1ccc(-c2sc3cc(OC)ccc3c2C(=O)c2ccc(OCCN3CCCCC3)cc2)cc1 | 300 nM | 
C[C@H](COc1ccc(C(=O)c2c(-c3ccc(O)cc3)sc3cc(O)ccc23)cc1)N1CCCC1 |  | IC50 [4]: 0.2 nM
O=C(c1ccc(N2CCN(C(=O)c3ccc(Cl)cc3)CC2)cc1)c1c(-c2ccc(O)cc2)sc2cc(O)ccc12 |  | IC50 [5]: 0.22 nM; IC50 [6]: 9.07 nM; Ratio IC50 [3]: 41
CC(C)N1CCN(c2ccc(C(=O)c3c(-c4ccc(O)cc4)sc4cc(O)ccc34)cc2)CC1 |  | Ratio IC50 [3]: 121
Cc1cc2c(C(=O)c3ccc(OCCN4CCCCC4)cc3)c(-c3ccc(O)cc3)sc2c(C)c1O | 500 nM | 
Oc1ccc2c(Cc3ccc(OCCN4CCCCC4)cc3)c([C@H]3CC[C@H](O)CC3)sc2c1 | 2 nM | 
O=C(c1ccc(OCCN2CCCCC2)cc1)c1c(-c2ccccc2CCF)sc2cc(O)ccc12 |  | relative binding affinity (RBA) [2]: 27
Oc1ccc2c(Cc3ccc(OCCN4CCCCC4)cc3)c(C3CCCCC3)sc2c1 | 10 nM | 
Cc1cc(-c2sc3cc(O)ccc3c2C(=O)c2ccc(OCCN3CCCCC3)cc2)cc(C)c1O | 100 nM | 
O=C(c1ccc(OCCN2CCCCC2)cc1)c1c(-c2ccc(O)c(Cl)c2)sc2cc(O)ccc12 | 2.3 nM | 
CC(C)c1sc2cc(O)ccc2c1Cc1ccc(OCCN2CCCCC2)cc1 | 100 nM | 
O=C(c1ccc(OCCN2CCCCC2)cc1)c1c(-c2ccc(O)c(F)c2)sc2cc(O)ccc12 | 0.3 nM | 
COc1ccc2c(C(=O)c3ccc(OCCN4CCCCC4)cc3)c(-c3ccc(O)cc3)sc2c1 | 250 nM | 
O=C(c1ccc(OCCN2CCCCC2)cc1)c1c(-c2ccccc2)sc2ccccc12 | 300 nM | 
C[C@H]1CCN(CCOc2ccc(C(=O)c3c(-c4ccc(O)cc4)sc4cc(O)ccc34)cc2)C1 |  | IC50 [4]: 1 nM
O=C(c1ccc(OCCN2CCCCC2)cc1)c1c(-c2ccc(O)cc2)sc2cc(O)c(F)cc12 | 3 nM | 
O=C(c1ccc(OCCN2CCCCC2)cc1)c1c(-c2ccccc2CCCF)sc2cc(O)ccc12 |  | relative binding affinity (RBA) [2]: 30
O=C(c1ccc(OCCN2CCCCC2)cc1)c1c2ccc(O)cc2sc1[C@H]1CC[C@H](O)CC1 | 0.5 nM | 
